Experimental data from US20130295185A1, “COMPOUNDS AND METHODS FOR INDUCING APOPTOSIS IN CANCER CELLS USING A BH3 ALPHA-HELICAL MIMETIC” (H. Lee Moffitt Cancer Center and Research Institute, Inc., priority 2011, published 2013).

Key:
[1] = system: BH3 binding groove of Bcl-2, Bcl-XL, and Bcl-w; settings: cited from earlier work
[2] = system: Mcl-1 and Bfl-1; settings: cited from earlier work
[3] = system: wild-type and Bax/Bak-deficient fibroblasts; settings: cited from earlier work
[4] = system: A549 cells; assay: BH3-M6 and CEP-1612 alone or in combination in A549 cells (MTT, TUNEL, PARP cleavage); type: cell-based, human
Experimental: FIG. 7 is a series of images illustrating BH3-M6 sensitizes A549 cells to the proteasome inhibitor CEP-1612 to induce apoptosis. A549 cells were treated with the indicated concentrations of either drug alone or in combination and then processed for various assays as described in EXPERIMENTAL PROCEDURES. (A) Cell viability as measured by MTT assay after 72 h of treatment, error bars indicate standard deviations of triplicates. (B) apoptosis as determined by TUNEL assay after 48 h of treatment. (C) PARP cleavage after 24 hours of drug treatment.
Release of cytochrome c from isolated mitochondria was measured as described by Takahashi et al. (Takahashi, Y., Karbowski, M., Yamaguchi, H., Kazi, A., Wu, J., Sebti, S. M., Youle, R. J., and Wang, H. G. (2005) Mol Cell Biol 25, 9369-9382) Cell-free caspase-3/-7 activity and the extent of PARP cleavage was determined as described previously. (Kazi, A., Smith, D. M., Zhong, Q., and Dou, Q. P. (2002) Mol Pharmacol 62, 765-771) MTT (3-(4,5-dimethylthiazol-2-yl)-2,5-diphenyltetrazolium bromide) and TUNEL assays were performed according to Kazi et al., both of which are incorporated herein by reference. (Kazi, A., Lawrence, H., Guida, W. C., McLaughlin, M. L., Springett, G. M., Berndt, N., Yip, R. M. L., and Sebti, S. M. (2009) Cell Cycle 8, 1940-1951)
To determine whether BH3-M6 sensitizes cells to apoptosis induced by other stimuli, the inventors treated A549 cells with BH3-M6 and CEP-1612 (Sun, J., Nam, S., Lee, C. S., Li, B., Coppola, D., Hamilton, A. D., Dou, Q. P., and Sebti, S. M. (2001) Cancer Res 61, 1280-1284), either alone or in combination. BH3-M6 and CEP-1612 alone had little effect on cell viability (about 20% and about 28%, respectively) (FIG. 7A) and apoptosis (about 5% and about 8%, respectively) (FIG. 7B). […] The results from FIG. 7C were obtained after about 24 hours of drug treatment, whereas those from FIG. 5C were obtained after about 48 hours of drug treatment.

Row | Structure (SMILES) | affinity for BH3 binding groove of Bcl-2, Bcl-XL, and Bcl-w [1] | binding to Mcl-1 and Bfl-1 [2] | killing of wild-type vs Bax/Bak-deficient cells [3] | inhibition of cell viability ([4]; A549, MTT, 72 h) | induction of apoptosis ([4]; A549, TUNEL, 48 h) | PARP cleavage ([4]; A549, immunoblot, about 24 hours)
1 | CN(C)CC[C@H](CSc1ccccc1)Nc1ccc(S(=O)(=O)NC(=O)c2ccc(N3CCN(Cc4ccccc4-c4ccc(Cl)cc4)CC3)cc2)cc1[N+](=O)[O-] [ABT-737] | high affinity | only binds weakly | kills only wild-type, but not Bax/Bak-deficient cells |  |  | 
2 | CC(C)C[C@@H](C=O)NC(=O)[C@H](CCCN=C(N)N[N+](=O)[O-])NC(=O)C(CCCCCCCCN1C(=O)c2ccccc2C1=O)C1CCCC1 (stereo partly drawn) [CEP-1612] |  |  |  | about 28% | about 8% | but not either drug alone
